These results are taken from patent US10648012B2, “Assay for inhibitors of equilibrative or concentrative nucleoside transporters” (ALBERT EINSTEIN COLLEGE OF MEDICINE OF YESHIVA UNIVERSITY, priority 2013, dated 2020).

Data set [1] has as its target T1, PfENT1 (Plasmodium falciparum, UniProt Q8IDM6).
T1 sequence (Q8IDM6 1-422): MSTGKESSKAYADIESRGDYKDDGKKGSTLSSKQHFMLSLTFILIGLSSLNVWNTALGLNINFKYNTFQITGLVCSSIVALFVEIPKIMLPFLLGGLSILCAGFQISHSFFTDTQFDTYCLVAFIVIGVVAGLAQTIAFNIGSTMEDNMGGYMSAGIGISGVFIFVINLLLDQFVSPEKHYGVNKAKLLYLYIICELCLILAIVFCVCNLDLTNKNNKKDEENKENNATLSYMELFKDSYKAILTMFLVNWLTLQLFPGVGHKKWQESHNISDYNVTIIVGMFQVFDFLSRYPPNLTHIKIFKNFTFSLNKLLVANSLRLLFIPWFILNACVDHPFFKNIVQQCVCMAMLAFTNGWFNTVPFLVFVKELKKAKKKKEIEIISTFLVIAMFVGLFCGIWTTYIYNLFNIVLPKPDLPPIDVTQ
In words: Inhibition of [3H]-adenine uptake by PfENT1-expressing Xenopus oocytes. The conditions noted are these: increasing concentrations of 5-FUrd. The class given is cell-based.

The subject of another data set is fui1Δ yeast. Nature of the data set: 5-FUrd cytotoxicity assay, growth (OD600) of parental fui1Δ yeast. The class given is cell-based. The conditions noted are these: Saccharomyces cerevisiae, 9.5 h, read-out: 5-FUrd IC50 for killing. The method, then:
(§1) Concentration dependence of 5-FUrd cytotoxic effects on PfENT1-expressing fui1Δ S. cerevisiae and on the parental fui1Δ strain: To determine the dose-response relationship for killing by 5 FUrd, 200 μl cultures in rich media (yeast extract, peptone, 2% dextrose, YPD) were inoculated with 3×10^6 cells/ml of PfENT1-expressing fui1Δ yeast and fui1Δ yeast. The cultures were grown in 96-well microtiter plates at 30° C., without shaking, in the absence of and in the presence of increasing concentrations of 5-FUrd (range 0.1-1,000 μM). After 570 minutes, the OD600 was measured using a BioRad Benchmark Plus microplate reader to determine the extent of cell growth. The OD600 was plotted as a function of drug concentration and the IC50 for 5-FUrd was calculated (FIG. 2). […] Though yeast grow optimally with constant aeration, a similar 5-FUrd IC50 was obtained for PfENT1-expressing fui1Δ yeast whether the plate was shaken continuously at 200 rpm or unshaken for 570 minutes of growth (IC50=9 μM).

The test system of another data set is WT yeast. In words: 5-FUrd IC50 on WT yeast after storage of the 5-FUrd sample. As to conditions: Saccharomyces cerevisiae, 90 h. The class given is cell-based. Here is the method:
as §1
5-FUrd Stability. Stability of 5-FUrd under the assay conditions is essential. The assay will involve yeast growth in the presence of 5-FUrd for 10-16 hrs at 30° C. To test 5-FUrd stability a sample of 5-FUrd was split into two aliquots. One was stored at −20° C. and the other at 30° C. for 90 hrs. The 5-FUrd IC50 was then determined for WT yeast as described above. […]

The nature of data set [2]: 5-FUrd stability under the assay growth conditions. It counts as physicochemical. As to conditions: 30° C. Here is the method: 5-FUrd Stability. Stability of 5-FUrd under the assay conditions is essential. The assay will involve yeast growth in the presence of 5-FUrd for 10-16 hrs at 30° C. To test 5-FUrd stability a sample of 5-FUrd was split into two aliquots. One was stored at −20° C. and the other at 30° C. for 90 hrs. The 5-FUrd IC50 was then determined for WT yeast as described above. […] Thus, 5-FUrd is stable under the assay growth conditions for at least 90 hrs. The assay should only require 10-16 hrs of growth, so 5-FUrd is stable on the timescale of the assay.

For data set [3], the system named is PfENT1-expressing fui1Δ yeast. Nature of the data set: 5-FUrd cytotoxicity assay, growth (OD600) of PfENT1-expressing fui1Δ yeast. The class given is cell-based. As to conditions: Saccharomyces cerevisiae, 9.5 h. Here is the method: as §1
Data set [4] deals with T1, PfENT1. As to conditions: cited from earlier work.

Where two headings read alike, the source gives them in different places.

In the case of `O=c1[nH]c(=O)n([C@@H]2O[C@H](CO)[C@@H](O)[C@H]2O)cc1F` [5-FUrd, 5-fluorouridine], the Ki at PfENT1 [1] was 1100 µM. Besides, the IC50 is 6400 µM in the data set on fui1Δ yeast; 60 ± 3 µM in the data set with WT yeast (5-FUrd sample stored at 30° C. for 90 hrs, n=3); 46 ± 2 µM with WT yeast (5-FUrd sample stored at −20° C. for 90 hrs); 9 µM in data set [3] (read-out: 5-FUrd IC50, shaken versus unshaken comparison); 12 µM in data set [3] (read-out: 5-FUrd IC50 for killing). The “time stable under the assay growth conditions” value in data set [2] is “at least 90 hrs”.

With `COc1cc(C(=O)OCCCN2CCCN(CCCOC(=O)c3cc(OC)c(OC)c(OC)c3)CC2)cc(OC)c1OC` [dilazep], on PfENT1 [4], the “inhibition of PfENT1” value is on record as “do not inhibit”.

As to `OCCN(CCO)c1nc(N2CCCCC2)c2nc(N(CCO)CCO)nc(N3CCCCC3)c2n1` [dipyridamole], the “inhibition of PfENT1” value at PfENT1 [4] is listed as “do not inhibit”.

Turning to `O=[N+]([O-])c1ccc(CSc2ncnc3c2ncn3[C@@H]2O[C@H](CO)[C@@H](O)[C@H]2O)cc1` [p-nitrobenzylthioinosine], on PfENT1 [4], the “inhibition of PfENT1” value was “do not inhibit”.

For orientation: Ki means a measure of affinity in units of concentration, obtained from inhibition or displacement. Read a high Ki as lower affinity. The IC50 is the concentration needed to halve the response being measured.
